# “Also recorded” adds a separate entry of the source.
# What was measured:
# [1] = test system: primary human T-cells (CD3+ T cells); assay: In vitro LNP transfection of primary human T-cells (GFP, Cy5 or DiI, viability by FACS); format: cell-based
# Source text: This example describes the protocol used for in vitro LNP transfections in primary human T-cells. This method is used to assess LNP in vitro efficacy in relevant target cells (CD3+ T cells) by first transfecting the cells using LNPs loaded with mRNA encoding for a reporter gene, such as GFP mRNA, and then assessing transfection by measuring reporter gene expression by fluorescence-[…] cell sorting (FACS). Additionally, particle association with cells may be observed by in the same assay by labeling individual nanoparticle components, such as the mRNA, with a fluorescent dye, such as Cy5, and then observing cell/dye association by FACS.
# CD3+ T cells were isolated from frozen peripheral blood mononuclear cells using an EasySep Human T Cell Isolation Kit on a RoboSep automated cell isolation system from […]. T cells were plated into a flat bottom 96-well plate in RPMI cell culture media supplemented with glutamax, 10% fetal bovine serum, and 40 ng/mL IL2. 100 μL of cell suspension was seeded per well at a density of 1M T cells/mL (100K T cells/well). Cells were allowed to rest for two hours in a 37° C. incubator, and then were transfected by gently adding 10 μL of a 22 μg/mL (by mRNA) nanoparticle suspension, resulting in a final mRNA concentration of 2 μg/mL. Cells were gently mixed with a pipette and then incubated for 24 hours in a 37° C. incubator. After incubation the cells were analyzed using an ThermoFisher Attune NXT flow cytometer. Cy5 was detected using a 638 nm laser with 670/14 nm filter. eGFP was detected using a 488 nm laser and a 530/30 nm filter. Data were analyzed using FlowJo software from BD biosciences. FACS data were first gated to exclude doublets and dead cells and then gated for GFP and Cy5. Gates for GFP+ and Cy5+were set such that a control sample (PBS treated T cells) was <0.1% positive.
# CD3+ T cells were isolated from frozen peripheral blood mononuclear cells using an EasySep Human T Cell Isolation Kit on a RoboSep automated cell isolation system from […]. T cells were plated into a round bottom 96-well plate in RPMI cell culture media supplemented with glutamax, 10% fetal bovine serum, pen-strep, and 40 ng/mL IL-2. 100 μL of cell suspension was seeded per well at a density of 1M T cells/mL (100K T cells/well). Cells were allowed to rest for two hours in a 37° C. incubator, and then were transfected by gently adding 10 μL of a 22 μg/mL (by mRNA) nanoparticle suspension, resulting in a final mRNA concentration of 2 μg/mL (unless otherwise noted). Cells were gently mixed with a pipette and then incubated for 24 hours in a 37° C. incubator. After incubation the cells were diluted with FACS buffer (BD 554657) and analyzed using a BD Fortessa flow cytometer. Data were analyzed using FlowJo software from BD biosciences.
# [2] = Hydrodynamic diameter and polydispersity of LNPs by dynamic light scattering (DLS), Zetasizer; format: physicochemical
# Procedure: (§1) Samples of the LNPs produced in Example 2 were characterized to determine the average hydrodynamic diameter, zeta potential, and mRNA content (total and dye-accessible). The hydrodynamic diameter was determined by dynamic light scattering (DLS) using a Zetasizer model ZEN3600 (Malvern Pananalytical, UK). The zeta potential was measured in 5 mM pH 5.5 MES buffer and 5 mM pH 7.4 HEPES buffer by laser Doppler electrophoresis using the Zetasizer.
# [3] = Zeta potential of LNPs by laser Doppler electrophoresis in 5 mM pH 5.5 MES and 5 mM pH 7.4 HEPES buffer; format: physicochemical; conditions: pH 5.5 MES and pH 7.4 HEPES buffer
# Procedure: as §1
smiles,measurement,setting,value
CCCCC/C=C\C/C=C\CCCCCCCC(=O)OC[C@H](CCN(C)C)OC(=O)CCCCCCC/C=C\C/C=C\CCCCC [Lipid 5],"GFP MFI, fold relative to DLn-MC3-DMA",[1]; 0.5 ug/mL and 1.0 ug/mL dose/well,> 5 fold
same,T-cell viability,"[1]; all three dose levels (0.125, 0.5 and 2 ug mRNA/mL per well), PBS control about 50%",40-45%
same,"GFP protein expression (% GFP+ cells, GFP MFI), in words","[1]; hSP34 targeted LNP with GFP mRNA, 24 hours",Dose dependent expression of GFP protein; also recorded: greater overall protein expression at all three mRNA dose levels; also recorded: outperformed both Lipid 8 and DLn-MC3-DMA
same,"LNP association with cells (% Cy5+/Cy5 MFI or % DiI+/DiI MFI), in words","[1]; hSP34 targeted LNP, 24 hours",equally associated with cells
same,"T-cell viability / tolerability, in words","[1]; hSP34 targeted LNP, 24 hours, dose as in the value",well tolerated by T-cells at and below 0.5 μg/mL dose; also recorded: consistently better tolerated by T-cells; also recorded: well tolerated by T-cells at and below 1.0 μg/mL dose; also recorded: better tolerated at higher doses; also recorded: least toxic at 1 ug/mL dose
same,polydispersity after antibody conjugate insertion,[2],< 0.15
same,change in particle size and PDI upon conjugate insertion,[2]; insertion of anti-CD3 hSP34-PEG2k-DSPE conjugate,larger change in hydrodynamic diameter (relative to Lipid 7 LNP); also recorded: larger change in hydrodynamic diameter (relative to Lipid 8 LNP)
same,"LNP surface charge (zeta potential), in words",[3],"positive zeta potential at pH 5.5, and either near neutral or slightly negative charge at pH 7.4"
